Source: patent US12011439B2, “Combination therapy using C—C chemokine receptor 4 (CCR4) antagonists and one or more immune checkpoint inhibitors” (CHEMOCENTRYX, INC., priority 2018, dated 2024)

What was measured:
CXCR1 = target: T1, CXCR1 (Homo sapiens, UniProt P25024); assay: Compound 1 selectivity panel, buffer IC50; assay type: cell-based; conditions: Receptor CXCR1
T1 sequence (P25024 1-350): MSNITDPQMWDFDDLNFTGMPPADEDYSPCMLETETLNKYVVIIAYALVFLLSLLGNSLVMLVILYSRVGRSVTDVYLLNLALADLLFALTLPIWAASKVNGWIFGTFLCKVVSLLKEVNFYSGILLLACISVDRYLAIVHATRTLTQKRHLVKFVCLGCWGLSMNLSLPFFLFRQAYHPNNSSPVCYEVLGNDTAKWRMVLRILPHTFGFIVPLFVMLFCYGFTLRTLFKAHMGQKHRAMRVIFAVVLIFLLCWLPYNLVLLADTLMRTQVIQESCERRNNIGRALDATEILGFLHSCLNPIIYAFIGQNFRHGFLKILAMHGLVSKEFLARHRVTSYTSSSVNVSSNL
Description: (§1) The selectivity of Compound 1 was tested by determining the IC50 value against a diverse panel of receptors, enzymes, and ion channels. […] See, Table 1.

Duffy = target: T2, Duffy (Homo sapiens, UniProt Q16570); assay: Compound 1 selectivity panel, buffer IC50; assay type: cell-based; conditions: Receptor Duffy
T2 sequence (Q16570 1-336): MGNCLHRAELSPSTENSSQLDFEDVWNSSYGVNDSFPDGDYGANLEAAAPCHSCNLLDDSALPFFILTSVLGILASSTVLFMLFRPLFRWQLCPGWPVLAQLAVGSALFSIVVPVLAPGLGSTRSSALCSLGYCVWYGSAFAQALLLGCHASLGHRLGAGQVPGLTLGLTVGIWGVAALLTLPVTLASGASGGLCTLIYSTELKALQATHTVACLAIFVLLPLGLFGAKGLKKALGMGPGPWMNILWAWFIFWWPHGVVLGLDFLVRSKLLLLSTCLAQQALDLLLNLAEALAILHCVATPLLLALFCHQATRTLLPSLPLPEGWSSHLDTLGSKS
Description: as §1

IC50 (CXCR1): > 10 µM
IC50 (Duffy): > 10 µM
Compound: C[C@@H](Nc1cc(C2CCN([C@H]3CCCN(CCC(=O)O)C3)CC2)ccc1Cl)c1ccc(Cl)cc1Cl [Compound 1]
